In the supplement of paper PMC8612539:
Values after ≈ are worked out from the molar mass of the structure shown.

What was measured:
[1] = tested on: Mannheimia haemolytica; assay: minimum inhibitory concentration (MIC)
Protocol: (§1)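 Broth microdilution MIC (Sensititre BOPO7F bovine plate, CLSI methods) of 19 antimicrobials against field isolates of P. multocida, M. haemolytica, H. somni (deep nasopharyngeal swabs) and E. coli, Enterococcus spp. (rectal swabs) from weaned dairy heifers. Incubation 16-24 h at 35 C. MIC is the lowest concentration preventing visible growth. Values with <= or > lie at the tested range limits. Trimethoprim-sulfamethoxazole is given as the trimethoprim component of a 1:19 mixture.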

[2] = tested on: Enterococcus spp.; assay: minimum inhibitory concentration (MIC)
Protocol: as §1

CC1(C)S[C@@H]2[C@H](NC(=O)Cc3ccccc3)C(=O)N2[C@H]1C(=O)O [Penicillin]
minimum inhibitory concentration [µg/mL]
Settings	[1]	[2]
isolate (source animal id): 2	–	≤ 0.12
isolate (source animal id): 8	0.25 (≈ 0.748 µM)	–
isolate (source animal id): 13	0.25 (≈ 0.748 µM)	–
isolate (source animal id): 18	≤ 0.12	–
isolate (source animal id): 21	0.25 (≈ 0.748 µM)	–
isolate (source animal id): 25	0.25 (≈ 0.748 µM)	–
isolate (source animal id): 27	0.25 (≈ 0.748 µM)	–
isolate (source animal id): 28	> 8	–
isolate (source animal id): 30	≤ 0.12	–
isolate (source animal id): 31	> 8	–
isolate (source animal id): 32	≤ 0.12	–
isolate (source animal id): 34	≤ 0.12	–
isolate (source animal id): 35	–	2 (≈ 5.98 µM)
isolate (source animal id): 36	≤ 0.12	–
isolate (source animal id): 37	≤ 0.12	–
isolate (source animal id): 40	≤ 0.12	–
isolate (source animal id): 41	≤ 0.12	–
isolate (source animal id): 42	–	2 (≈ 5.98 µM)
isolate (source animal id): 43	0.25 (≈ 0.748 µM)	–
isolate (source animal id): 44	–	2 (≈ 5.98 µM)
isolate (source animal id): 46	≤ 0.12	–
isolate (source animal id): 49	≤ 0.12	–
isolate (source animal id): 50	> 8	–
isolate (source animal id): 51	0.25 (≈ 0.748 µM)	–
isolate (source animal id): 52	≤ 0.12	–
isolate (source animal id): 53	≤ 0.12	–
isolate (source animal id): 55	≤ 0.12	–
isolate (source animal id): 56	≤ 0.12	–
isolate (source animal id): 57	0.25 (≈ 0.748 µM)	–
isolate (source animal id): 79	–	2 (≈ 5.98 µM)
isolate (source animal id): 88	–	≤ 0.12
isolate (source animal id): 91	–	≤ 0.12
isolate (source animal id): 92	–	0.5 (≈ 1.5 µM)
isolate (source animal id): 100	≤ 0.12	–
isolate (source animal id): 103	≤ 0.12	–
isolate (source animal id): 107	≤ 0.12	–
isolate (source animal id): 108	≤ 0.12	–
isolate (source animal id): 111	–	≤ 0.12
isolate (source animal id): 112	0.25 (≈ 0.748 µM)	–
isolate (source animal id): 113	0.5 (≈ 1.5 µM)	–
isolate (source animal id): 121	> 8	–
isolate (source animal id): 122	0.25 (≈ 0.748 µM)	2 (≈ 5.98 µM)
isolate (source animal id): 123	1 (≈ 2.99 µM)	1 (≈ 2.99 µM)
isolate (source animal id): 126	> 8	–
isolate (source animal id): 133	0.5 (≈ 1.5 µM)	1 (≈ 2.99 µM)
isolate (source animal id): 135	0.25 (≈ 0.748 µM)	–
isolate (source animal id): 138	> 8	–
isolate (source animal id): 141	≤ 0.12	–
isolate (source animal id): 142	0.25 (≈ 0.748 µM)	–
isolate (source animal id): 145	0.25 (≈ 0.748 µM)	–
isolate (source animal id): 149	≤ 0.12	–
isolate (source animal id): 151	0.25 (≈ 0.748 µM)	–
isolate (source animal id): 152	≤ 0.12	–
isolate (source animal id): 154	0.5 (≈ 1.5 µM)	–
isolate (source animal id): 158	–	2 (≈ 5.98 µM)
isolate (source animal id): 159	> 8	–
isolate (source animal id): 162	> 8	–
isolate (source animal id): 168	–	4 (≈ 12 µM)
isolate (source animal id): 169	–	4 (≈ 12 µM)
isolate (source animal id): 170	> 8	–
isolate (source animal id): 171	0.5 (≈ 1.5 µM)	1 (≈ 2.99 µM)
isolate (source animal id): 172	> 8	–
isolate (source animal id): 173	> 8	–
isolate (source animal id): 175	–	4 (≈ 12 µM)
isolate (source animal id): 177	–	2 (≈ 5.98 µM)
isolate (source animal id): 179	> 8	–
isolate (source animal id): 180	> 8	–
isolate (source animal id): 181	–	4 (≈ 12 µM)
isolate (source animal id): 182	–	4 (≈ 12 µM)
isolate (source animal id): 183	> 8	2 (≈ 5.98 µM)
isolate (source animal id): 186	> 8	–
isolate (source animal id): 187	> 8	4 (≈ 12 µM)
isolate (source animal id): 188	> 8	–
isolate (source animal id): 190	0.5 (≈ 1.5 µM)	4 (≈ 12 µM)
isolate (source animal id): 191	> 8	–
isolate (source animal id): 192	0.25 (≈ 0.748 µM)	–
isolate (source animal id): 194	–	1 (≈ 2.99 µM)
isolate (source animal id): 195	–	4 (≈ 12 µM)
isolate (source animal id): 197	–	0.5 (≈ 1.5 µM)
isolate (source animal id): 201	> 8	–
isolate (source animal id): 202	> 8	–
isolate (source animal id): 209	> 8	–
isolate (source animal id): 211	> 8	4 (≈ 12 µM)
isolate (source animal id): 214	–	2 (≈ 5.98 µM)
isolate (source animal id): 220	> 8	–
isolate (source animal id): 221	> 8	–
isolate (source animal id): 222	–	1 (≈ 2.99 µM)
isolate (source animal id): 223	> 8	1 (≈ 2.99 µM)
isolate (source animal id): 228	–	2 (≈ 5.98 µM)
isolate (source animal id): 230	–	8 (≈ 23.9 µM)
isolate (source animal id): 233	> 8	–
isolate (source animal id): 235	–	2 (≈ 5.98 µM)
isolate (source animal id): 236	–	2 (≈ 5.98 µM)
isolate (source animal id): 237	0.25 (≈ 0.748 µM)	–
isolate (source animal id): 239	–	1 (≈ 2.99 µM)
isolate (source animal id): 241	> 8	4 (≈ 12 µM)
isolate (source animal id): 244	–	1 (≈ 2.99 µM)
isolate (source animal id): 246	–	1 (≈ 2.99 µM)
isolate (source animal id): 247	–	8 (≈ 23.9 µM)
isolate (source animal id): 250	–	1 (≈ 2.99 µM)
isolate (source animal id): 252	0.25 (≈ 0.748 µM)	2 (≈ 5.98 µM)
isolate (source animal id): 253	0.25 (≈ 0.748 µM)	–
isolate (source animal id): 259	> 8	–
isolate (source animal id): 260	≤ 0.12	–
isolate (source animal id): 262	> 8	–
isolate (source animal id): 268	–	≤ 0.12
isolate (source animal id): 282	> 8	2 (≈ 5.98 µM)
isolate (source animal id): 285	–	2 (≈ 5.98 µM)
isolate (source animal id): 287	0.25 (≈ 0.748 µM)	–
isolate (source animal id): 288	0.5 (≈ 1.5 µM)	–
isolate (source animal id): 289	–	0.5 (≈ 1.5 µM)
isolate (source animal id): 290	–	0.25 (≈ 0.748 µM)
isolate (source animal id): 291	≤ 0.12	–
isolate (source animal id): 293	0.25 (≈ 0.748 µM)	–
isolate (source animal id): 296	–	0.5 (≈ 1.5 µM)
isolate (source animal id): 298	≤ 0.12	≤ 0.12
isolate (source animal id): 299	0.25 (≈ 0.748 µM)	–
isolate (source animal id): 300	≤ 0.12	–
isolate (source animal id): 301	–	≤ 0.12
isolate (source animal id): 302	≤ 0.12	–
isolate (source animal id): 304	≤ 0.12	–
isolate (source animal id): 306	≤ 0.12	–
isolate (source animal id): 308	≤ 0.12	–
isolate (source animal id): 309	≤ 0.12	–
isolate (source animal id): 310	–	4 (≈ 12 µM)
isolate (source animal id): 313	0.25 (≈ 0.748 µM)	–
isolate (source animal id): 318	≤ 0.12	–
isolate (source animal id): 320	≤ 0.12	0.5 (≈ 1.5 µM)
isolate (source animal id): 321	≤ 0.12	–
isolate (source animal id): 323	0.25 (≈ 0.748 µM)	–
isolate (source animal id): 324	≤ 0.12	–
isolate (source animal id): 326	≤ 0.12	–
isolate (source animal id): 328	0.25 (≈ 0.748 µM)	–
isolate (source animal id): 329	0.25 (≈ 0.748 µM)	–
isolate (source animal id): 331	–	≤ 0.12
isolate (source animal id): 333	≤ 0.12	0.25 (≈ 0.748 µM)
isolate (source animal id): 335	0.5 (≈ 1.5 µM)	–
isolate (source animal id): 338	0.25 (≈ 0.748 µM)	–
isolate (source animal id): 341	–	2 (≈ 5.98 µM)
